Where two headings read alike, the source gives them in different places.
Biological target: T1, Nanoluciferase-BRD9 fusion protein (3×FLAG-NLuc-BRD9) in SYO-1 cells (Homo sapiens, UniProt Q9H8M2)
T1 construct: expressed in transfected cells; host or cells: SYO-1
T1 sequence (Q9H8M2 1-597): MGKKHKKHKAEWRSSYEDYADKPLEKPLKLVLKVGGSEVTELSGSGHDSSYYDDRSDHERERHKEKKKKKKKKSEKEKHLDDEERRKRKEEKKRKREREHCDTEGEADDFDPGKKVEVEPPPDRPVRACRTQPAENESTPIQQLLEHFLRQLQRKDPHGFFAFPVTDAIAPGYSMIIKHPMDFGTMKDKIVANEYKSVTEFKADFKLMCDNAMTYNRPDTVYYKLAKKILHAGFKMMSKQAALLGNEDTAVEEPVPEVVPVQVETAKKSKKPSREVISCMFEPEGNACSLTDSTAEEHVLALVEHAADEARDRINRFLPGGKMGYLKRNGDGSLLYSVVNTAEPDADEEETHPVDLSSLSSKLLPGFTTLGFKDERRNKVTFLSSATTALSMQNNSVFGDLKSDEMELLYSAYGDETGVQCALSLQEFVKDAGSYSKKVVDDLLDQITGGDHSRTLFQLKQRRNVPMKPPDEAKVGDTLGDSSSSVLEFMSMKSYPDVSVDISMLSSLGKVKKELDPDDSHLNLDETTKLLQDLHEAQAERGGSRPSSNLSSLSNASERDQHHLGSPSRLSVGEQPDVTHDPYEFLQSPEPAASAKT
Assay: SYO1 BRD9 NanoLuc degradation assay
Type: cell-based
Conditions: SYO-1 cells expressing 3×FLAG-NLuc-BRD9, 6 hours incubation, 1 μM top dose, read-out: SYO1 BRD9-NanoLuc degradation IC50
Protocol: Procedure: A stable SYO-1 cell line expressing 3×FLAG-NLuc-BRD9 was generated. On day 0 cells were seeded in 30 μL media into each well of 384-well cell culture plates. The seeding density was 8000 cells/well. On day 1, cells were treated with 30 nL DMSO or 30 nL of 3-fold serially DMSO-diluted compounds (10 points in duplicates with 1 μM as final top dose). Subsequently plates were incubated for 6 hours in a standard tissue culture incubator and equilibrated at room temperature for 15 minutes. Nanoluciferase activity was measured by adding 15 μL of freshly prepared Nano-Glo Luciferase Assay Reagent (Promega N1130), shaking the plates for 10 minutes and reading the bioluminescence using an EnVision reader. • Results: The Inhibition % was calculated using the following formula: % Inhibition=100×(LumHC−LumSample)/(LumHC−LumLC). DMSO treated cells are employed as High Control (HC) and 1 μM of a known BRD9 degrader standard treated cells are employed as Low Control (LC).

Row | Compound | DC50 (Table 6B) [nM] | DC50 (Table 6C) [nM]
1 | COc1cc(-c2cn(C)c(=O)c3ccsc23)cc(OC)c1C1CCN(c2ccc3c(c2)C(=O)N(C2CCC(=O)NC2=O)C3)C1 (stereo not shown) [Compound D122] |  | < 10
2 | COc1cc(-c2cn(C)c(=O)c3cc(C#N)sc23)cc(OC)c1CN1CCC2(CC1)CN(c1ccc3c(c1)C(=O)N(C1CCC(=O)NC1=O)C3)C2 (stereo not shown) [Compound D139] |  | < 10
3 | COc1cc(-c2cn(C)c(=O)c3cc(C(=O)NC4CCCN(CCCCCOc5ccc6c(c5)C(=O)N(C5CCC(=O)NC5=O)C6=O)CC4)sc23)cc(OC)c1CN(C)C (stereo not shown) [Compound D87] | < 10 | 
4 | COc1cc(-c2cn(C)c(=O)c3nc(C)sc23)cc(OC)c1CN1CCC2(CC1)CN(c1ccc3c(c1)C(=O)N(C1CCC(=O)NC1=O)C3)C2 (stereo not shown) [Compound D214] |  | < 10
5 | COc1cc(-c2cn(C)c(=O)c3ncsc23)cc(OC)c1CN1CC(Oc2ccc3c(c2)C(=O)N(C2CCC(=O)NC2=O)C3)C1 (stereo not shown) [Compound D212] |  | < 10
6 | COc1cc(-c2cn(C)c(=O)c3cc(C(=O)NC4CCN(CC(F)(F)CCCOc5ccc6c(c5)C(=O)N(C5CCC(=O)NC5=O)C6=O)CC4)sc23)cc(OC)c1CN(C)C (stereo not shown) [Compound D83] | < 10 | 
7 | COc1cc(-c2cn(C)c(=O)c3cc(C(=O)NC4CCN(C(=O)c5csc(C(=O)c6c[nH]c7ccccc67)n5)CC4(F)F)sc23)cc(OC)c1CN(C)C (stereo not shown) [DD1] |  | > 1000
8 | COc1cc(-c2cn(C)c(=O)c3cc(C(=O)NC4CCN(c5ccc6c(c5)C(=O)N(C5CCC(=O)NC5=O)C6)CC4(F)F)sc23)cc(F)c1CN(C)C (stereo not shown) [Compound D118] |  | < 10
9 | COc1cc(-c2cn(C)c(=O)c3occc23)cc(OC)c1CN1CC(CN2CCC3(CC2)CN(c2ccc4c(c2)C(=O)N(C2CCC(=O)NC2=O)C4)C3)C1 (stereo not shown) [Compound D21] | < 10 | 
10 | COc1cc(-c2cn(C)c(=O)c3cc(C(=O)NC4CCN(C)CC4(F)F)sc23)cc(OC)c1CN1CC(CN2CCC3(CC2)CN(c2ccc4c(c2)CN(C2CCC(=O)NC2=O)C4=O)C3)C1 (stereo not shown) [Compound D104] |  | < 10
11 | COc1cc(-c2cn(C)c(=O)c3ccsc23)cc(OC)c1CN1CCC2CN(c3ccc4c(c3)C(=O)N(C3CCC(=O)NC3=O)C4)CCC2C1 (stereo not shown) [Compound D106] |  | < 10
12 | Cn1cc(-c2cccc(C(F)(F)F)c2)c2sc(C(=N)NC3CCS(=O)(=O)N(CC(=O)NCCCCCCCCNc4cccc5c4C(=O)N(C4CCC(=O)NC4=O)C5=O)C3)cc2c1=O (stereo not shown) [Compound D31] | > 10 | 
13 | COc1cc(-c2cn(C)c(=O)c3ccsc23)cc(OC)c1CN1CC(Oc2ccc3c(c2)C(=O)N(C2CCC(=O)NC2=O)C3)C1 (stereo not shown) [Compound D168] |  | < 10
14 | COc1cc(-c2cn(C)c(=O)c3ccsc23)cc(OC)c1CN1CCC(CN2CCC3(CC2)CC(Oc2ccc4c(c2)C(=O)N(C2CCC(=O)NC2=O)C4)C3)CC1 (stereo not shown) [Compound D174] |  | < 10
15 | COc1cc(-c2cn(C)c(=O)c3cc(C(=O)NCC4CC5(CCN(C(=O)CCN6CCN(c7ccc8c(c7)C(=O)N(C7CCC(=O)NC7=O)C8=O)CC6)CC5)CO4)sc23)cc(OC)c1CN(C)C (stereo not shown) [Compound D48] | > 10 | 
16 | COc1cc(-c2cn(C)c(=O)c3cc(NC4CCN(C(=O)CCCCOc5ccc6c(c5)C(=O)N(C5CCC(=O)NC5=O)C6=O)CC4)sc23)cc(OC)c1CN(C)C (stereo not shown) [Compound D71] | > 10 | 
17 | COc1cc(-c2cn(C)c(=O)c3cc(C)sc23)cc(OC)c1CN1CCC2(CC1)CN(c1ccc3c(c1)C(=O)N(C1CCC(=O)NC1=O)C3)C2 (stereo not shown) [Compound D132] |  | < 10
18 | COc1cc(-c2cn(C)c(=O)c3ccsc23)cc(OC)c1CN1CCC2CCN(c3ccc4c(c3)CN(C3CCC(=O)NC3=O)C4=O)CC2C1 (stereo not shown) [Compound D121] |  | < 10
19 | COc1cc(-c2cn(C)c(=O)c3ccsc23)cc(OC)c1CN1CCC2CCN(c3ccc4c(c3)C(=O)N(C3CCC(=O)NC3=O)C4)CC2C1 (stereo not shown) [Compound D113] |  | < 10
20 | COc1cc(-c2cn(C)c(=O)c3ccsc23)cc(OC)c1CN1CCC(CN2CCC3(CC2)CN(c2ccc4c(c2)C(=O)N(C2CCC(=O)NC2=O)C4=O)C3)CC1 (stereo not shown) [Compound D185] |  | < 10

The remaining lines, values ahead:

Row | DC50 (Table 6B) [nM] | DC50 (Table 6C) [nM] | Compound
21 | < 10 |  | COc1cc(-c2cn(C)c(=O)c3cc(C(=O)NC4CC5(C4)CN(C(=O)CCN4CCN(c6ccc7c(c6)C(=O)N(C6CCC(=O)NC6=O)C7=O)CC4)C5)sc23)cc(OC)c1CN(C)C (stereo not shown) [Compound D74]
22 | < 10 |  | COc1cc(-c2cn(C)c(=O)c3cc(C(=O)NC4CCN(C(=O)CCN5CCN(c6ccc7c(c6)C(=O)N(C6CCC(=O)NC6=O)C7=O)CC5)CC4)sc23)cc(OC)c1CN(C)C (stereo not shown) [Compound D78]
23 |  | < 10 | COc1cc(-c2cn(C)c(=O)c3cc(C(=O)NC4CCN(CCN5CCN(c6ccc7c(c6)C(=O)N(C6CCC(=O)NC6=O)C7)CC5)CC4)sc23)cc(OC)c1CN(C)C (stereo not shown) [Compound D130]
24 |  | < 10 | COc1cc(-c2cn(C)c(=O)c3cc(C(=O)N[C@@H]4CCN(C5CCN(c6ccc7c(c6)C(=O)N(C6CCC(=O)NC6=O)C7)CC5)CC4(F)F)sc23)cc(OC)c1CN(C)C (stereo partly shown) [Compound D162]
25 | < 10 |  | COc1cc(-c2cn(C)c(=O)c3cc(C(=O)NC4CC5(CCN(CCN6CCN(c7ccc8c(c7)C(=O)N([C@@H]7CCC(=O)NC7=O)C8=O)CC6)C5)C4)sc23)cc(OC)c1CN(C)C (stereo partly shown) [Compound D65]
26 | > 10 |  | COc1cc(-c2cn(C)c(=O)c3cc(C(=O)NCC4CC5(C4)CN(CCN4CCN(c6ccc7c(c6)C(=O)N(C6CCC(=O)NC6=O)C7=O)CC4)C5)sc23)cc(OC)c1CN(C)C (stereo not shown) [Compound D53]
27 | < 10 |  | COc1cc(-c2cn(C)c(=O)c3cc(C(=O)NC4CCN(CCCCN5CCN(c6ccc7c(c6)C(=O)N(C6CCC(=O)NC6=O)C7=O)CC5)CC4)sc23)cc(OC)c1CN(C)C (stereo not shown) [Compound D86]
28 | < 10 |  | COc1cc(-c2cn(C)c(=O)c3cc(C(=O)NCC4CC5CN(CCN6CCN(c7ccc8c(c7)C(=O)N(C7CCC(=O)NC7=O)C8=O)CC6)CC5C4)sc23)cc(OC)c1CN(C)C (stereo not shown) [Compound D43]
29 | < 10 |  | COc1cc(-c2cn(C)c(=O)c3cc(C(=O)NC4CC5(CCN(CCCN6CCN(c7ccc8c(c7)C(=O)N(C7CCC(=O)NC7=O)C8=O)CC6)C5)C4)sc23)cc(OC)c1CN(C)C (stereo not shown) [Compound D73]
30 | < 10 |  | COc1cc(-c2cn(C)c(=O)c3cc(C(=O)NCC4CC5(CCN(CCN6CCN(c7ccc8c(c7)C(=O)N(C7CCC(=O)NC7=O)C8=O)CC6)CC5)CO4)sc23)cc(OC)c1CN(C)C (stereo not shown) [Compound D50]
31 |  | > 10 | COc1cc(-c2c(C)n(C)c(=O)c3cc(C(=O)NC4CCN(CCN5CCN(c6ccc7c(c6)C(=O)N(C6CCC(=O)NC6=O)C7)CC5)CC4(F)F)sc23)cc(OC)c1CN(C)C (stereo not shown) [Compound D171]
32 | < 10 |  | COc1cc(-c2cn(C)c(=O)c3cc(C(=O)NC4CCN(C)CC4(F)F)sc23)cc(OC)c1CN1CCN(c2ccc3c(c2)CN(C2CCC(=O)NC2=O)C3=O)CC1 (stereo not shown) [Compound D22]
33 | < 10 |  | COc1cc(-c2cn(C)c(=O)c3cc(C(=O)NC4CC5(CCN(C(=O)CCN6CCN(c7ccc8c(c7)C(=O)N(C7CCC(=O)NC7=O)C8=O)CC6)CC5)C4)sc23)cc(OC)c1CN(C)C (stereo not shown) [Compound D40]
34 | < 10 |  | COc1cc(-c2cn(C)c(=O)c3cc(C(=O)NC4CCN(C(=O)CN5CCC6(CC5)CN(c5ccc7c(c5)CN(C5CCC(=O)NC5=O)C7=O)C6)CC4(F)F)sc23)cc(OC)c1CN(C)C (stereo not shown) [Compound D18]
35 | > 10 |  | COc1cc(-c2cn(C)c(=O)c3cc(C(=O)NCC4CC45CCN(C(=O)CCN4CCN(c6ccc7c(c6)C(=O)N(C6CCC(=O)NC6=O)C7=O)CC4)CC5)sc23)cc(OC)c1CN(C)C (stereo not shown) [Compound D67]
36 | < 10 |  | COc1cc(-c2cn(C)c(=O)c3cc(C(=O)NC4CC5(CCN(CCN6CCN(c7ccc8c(c7)C(=O)N(C7CCC(=O)NC7=O)C8=O)CC6)CC5)C4)sc23)cc(OC)c1CN(C)C (stereo not shown) [Compound D41]
37 | < 10 |  | COc1cc(-c2cn(C)c(=O)c3cc(C(=O)NCC4CC5CN(CCCN6CCN(c7ccc8c(c7)C(=O)N(C7CCC(=O)NC7=O)C8=O)CC6)CC5C4)sc23)cc(OC)c1CN(C)C (stereo not shown) [Compound D42]
38 |  | < 10 | COc1cc(-c2cn(C)c(=O)c3cc(C(=O)N[C@H]4CCN(c5ccc6c(c5)CN(C5CCC(=O)NC5=O)C6=O)CC4(F)F)sc23)cc(OC)c1CN(C)C (stereo partly shown) [Compound D151]
39 |  | < 10 | COc1cc(-c2cn(C)c(=O)c3cc(C(=O)NC4CCN(c5ccc6c(c5)C(=O)N(C5CCC(=O)NC5=O)C6)CC4(F)F)sc23)cc(OC)c1CN(C)C (stereo not shown) [Compound D165]
40 |  | < 10 | COc1cc(-c2cn(C)c(=O)c3cc(C(=O)N[C@@H]4CCN(c5ccc6c(c5)CN(C5CCC(=O)NC5=O)C6=O)CC4(F)F)sc23)cc(OC)c1CN(C)C (stereo partly shown) [Compound D155]
